From article PMC3047509 (Journal of the American Chemical Society, 2011)
Bridge positions count the residues as written; N and C are the ends. Peptide text beside a SMILES is read from it.

Legend:
CBP BRD = CBP BRD (Homo sapiens, UniProt Q92793); assay: competition fluorescent polarization; assay type: binding; settings: FP competition assay; relative to linear p53-K382ac
[1] = tested on: p53-induced p21 activation; assay: p53-based p21-luciferase assay; assay type: cell-based, human; settings: HCT116 cells, doxorubicin treatment
[2] = tested on: endogenous p53 and p21 proteins in HCT116 cells; assay: western blot of endogenous p53 and p21 after doxorubicin; assay type: cell-based, human; settings: peptide 12 hours, then doxorubicin 300 ng/ml for 24 hrs

Sequence of CBP BRD (Q92793 1085-1192 limits assumed): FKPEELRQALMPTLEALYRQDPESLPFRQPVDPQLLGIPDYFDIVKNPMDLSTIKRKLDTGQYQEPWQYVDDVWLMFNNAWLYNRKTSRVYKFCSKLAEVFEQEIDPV

Row | fold increase in binding affinity over linear p53-K382ac peptide (CBP BRD) [fold] | inhibition of p53-induced p21 luciferase activation [1] | SMILES | protein level of endogenous p53 and p21 [2]
1 | 9 | – | CC(=O)NCCCC[C@@H]1NC(=O)[C@H](CCCCN)NC(=O)[C@H](Cc2c[nH]cn2)NC(=O)[C@@H](N)CSSC[C@@H](C(=O)N[C@@H](Cc2ccccc2)C(=O)N[C@@H](CCCCN)C(N)=O)NC(=O)[C@H](CC(C)C)NC1=O [compound 1] (H-CHKK(Ac)LCFK-NH2; disulfide 1-6; N-terminus and C-terminus assumed) | –
2 | 24 | dose-dependent inhibition | CC(=O)NCCCC[C@@H]1NC(=O)[C@H](CCCCN)NC(=O)[C@H](Cc2c[nH]c3ccccc23)NC(=O)[C@@H](N)CSSC[C@@H](C(=O)N[C@@H](Cc2ccccc2)C(=O)N[C@@H](CCCCN)C(N)=O)NC(=O)[C@H](CC(C)C)NC1=O [compound 4] (H-CWKK(Ac)LCFK-NH2; disulfide 1-6; N-terminus and C-terminus assumed) | effectively reduced the protein level of endogenous p53 and p21
